Where two headings read alike, the source gives them in different places. Marks after values point to notes of the source that are not given here.
Tests used:
hY1R [1] = target: T1, hY1R (Homo sapiens, UniProt P25929); experiment: Y1R radioligand competition binding, whole SK-N-MC cells, [3H]UR-MK299; settings: SK-N-MC neuroblastoma cells, [3H]UR-MK299 c = […]
T1 construct: host or cells: SK-N-MC neuroblastoma cells
T1 sequence (P25929 1-384): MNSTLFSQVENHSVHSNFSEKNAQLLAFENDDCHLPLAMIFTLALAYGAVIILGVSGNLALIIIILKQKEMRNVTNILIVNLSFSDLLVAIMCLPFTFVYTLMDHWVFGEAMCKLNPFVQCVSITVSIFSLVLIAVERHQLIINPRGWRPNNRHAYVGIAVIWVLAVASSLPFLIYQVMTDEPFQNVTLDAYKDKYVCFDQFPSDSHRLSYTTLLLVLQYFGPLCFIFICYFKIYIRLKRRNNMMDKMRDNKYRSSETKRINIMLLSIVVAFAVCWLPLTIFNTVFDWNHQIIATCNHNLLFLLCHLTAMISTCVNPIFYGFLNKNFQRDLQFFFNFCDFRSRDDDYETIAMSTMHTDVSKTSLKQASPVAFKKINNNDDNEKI
Protocol: (§1) All radioligand binding assays were performed at intact Y receptor expressing cells at 23 ± 2 °C.
Competition binding assays at Y1R-expressing SK-N-MC neuroblastoma cells were performed as previously described using [^3H]UR-MK299 as radioligand (concentration: 0.15 nM).[33] […] (logarithmic form in the case of pKi values).

hY2R [2] = target: T2, hY2R (Homo sapiens, UniProt P49146); experiment: Y2R radioligand competition binding, whole CHO-hY2R cells, [3H]propionyl-pNPY; settings: read-out: pKi ± SEM hY2R (converted)
T2 construct: host or cells: CHO
T2 sequence (P49146 1-381): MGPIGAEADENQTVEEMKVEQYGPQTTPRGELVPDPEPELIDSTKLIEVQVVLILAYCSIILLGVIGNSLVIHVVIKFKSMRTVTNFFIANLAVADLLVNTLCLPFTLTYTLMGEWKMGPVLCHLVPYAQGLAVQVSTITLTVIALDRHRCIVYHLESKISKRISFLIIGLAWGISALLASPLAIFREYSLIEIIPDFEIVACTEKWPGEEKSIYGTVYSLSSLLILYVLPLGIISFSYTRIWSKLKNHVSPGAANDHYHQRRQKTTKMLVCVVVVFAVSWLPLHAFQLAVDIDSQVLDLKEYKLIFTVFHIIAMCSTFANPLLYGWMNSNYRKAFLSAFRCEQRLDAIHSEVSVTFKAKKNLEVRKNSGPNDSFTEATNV
Protocol: as §1

hY5R [3] = target: T3, hY5R (Homo sapiens, UniProt Q15761); experiment: Y5R radioligand competition binding, whole HEC-1B-hY5R cells, [3H]propionyl-pNPY; settings: [3H]propionyl-pNPY c = 5 nM
T3 construct: expressed in transfected cells; host or cells: HEC-1B (human endometrial cancer)
T3 sequence (Q15761 1-445): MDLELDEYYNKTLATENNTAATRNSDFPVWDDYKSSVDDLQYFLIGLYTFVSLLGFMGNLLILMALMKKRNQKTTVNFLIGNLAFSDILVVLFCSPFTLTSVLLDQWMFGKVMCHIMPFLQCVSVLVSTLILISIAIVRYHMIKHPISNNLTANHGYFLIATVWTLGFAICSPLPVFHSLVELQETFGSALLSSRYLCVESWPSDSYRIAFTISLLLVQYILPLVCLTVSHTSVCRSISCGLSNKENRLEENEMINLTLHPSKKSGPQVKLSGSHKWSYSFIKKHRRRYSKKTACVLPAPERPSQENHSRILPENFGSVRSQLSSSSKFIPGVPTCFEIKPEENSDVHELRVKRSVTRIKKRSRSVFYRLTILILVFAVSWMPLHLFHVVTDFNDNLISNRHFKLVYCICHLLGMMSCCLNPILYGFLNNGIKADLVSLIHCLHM
Protocol: as §1
(logarithmic form in the case of pKi values).

[4] = Chemical stability in PBS pH 7.4; format: physicochemical; settings: PBS pH 7.4, room temperature, 48 h, 100 μM
Protocol: The chemical stability of the fluorescent ligands 16, 17, and 18 was investigated in PBS (adjusted to pH 7.4) at 22 °C. […] After time periods of 0, 6, and 48 h, an aliquot (25 μL) was withdrawn and added to 25 μL of acetonitrile/0.04% aq. TFA 1:9 v/v to obtain a peptide solution with a concentration of 50 μM. 20 μL of this solution were subjected to analytical RP-HPLC analysis using the same system and conditions as described under Analytical HPLC, but applying a different linear gradient: 0–14 min: A/B 90:10–45:55, 14–15 min: 45:55–5:95, 15–19 min: 5:95 (isocratic). A 1:1 mixture of PBS and acetonitrile/0.04% aq. TFA 1:9 v/v (20 μL) was analyzed to obtain the blank chromatogram.

hY4R [5] = target: T4, hY4R (Homo sapiens, UniProt P50391); experiment: Y4R cAMP CAMYEN assay (HEK293T-CAMYEN-hY4R cells); format: cell-based; parameters: expressed in transfected cells; settings: read-out: CAMYEN cAMP Emax ± SEM; further: relative to 1 µM hPP (100%)
Protocol: The assay was performed with live HEK293T-CAMYEN-hY4R cells applying a reported protocol.[31] Experiments were performed in triplicate. Data processing was performed with GraphPad Prism 9.0 as previously described.[31]

Y4R [6] = target: T5, Y4R (Homo sapiens, UniProt P50391); experiment: Y4R miniGsi recruitment assay (HEK293T-NlucN-mGsi/Y4R-NlucC cells); format: cell-based; parameters: expressed in transfected cells; host or cells: HEK293T; settings: for Emax: read-out: miniGsi recruitment Emax ± SEM; for EC50: HEK293T-NlucN-mGsi/Y4R-NlucC cells; on miniGsi recruitment Emax ± SEM: relative to 1 µM hPP (100%)
Protocol: Furimazine was used as nanoluciferase substrate. The original stock was diluted 1:1000 in L15-HEPES to obtain the feed solution for the assay. Data analysis was performed based on the areas under the curves (time window: 45 min starting with the agonist addition) using GraphPad Prism 5. […] Efficacies Emax correspond to the upper plateaus of the normalized concentration–response curves.

hY4R [7] = target: T4, hY4R; experiment: Y4R Ca2+ aequorin assay (CHO-hY4R-Gqi5-mtAEQ cells); format: cell-based; parameters: expressed in transfected cells; host or cells: CHO (co-expressing Gqi5 and mitochondrially targeted aequorin); settings: read-out: Ca2+-aequorin Emax ± SEM
Protocol: The assay was performed with live CHO-hY4R-Gqi5-mtAEQ cells as previously described (used buffer: buffer III). Measurements were carried out on a Tecan Infinite Lumi plate reader. Data analysis was performed as reported using GraphPad Prism 5 for the calculation of the area under the curve. […] Efficacies Emax correspond to the upper plateaus of the normalized concentration–response curves.

Y4R [8] = target: T5, Y4R; settings: cited from earlier work
[9] = target: Y1 receptor (Homo sapiens) (UniProt P25929); settings: cited from earlier work
[10] = target: Y2 receptor (Homo sapiens) (UniProt P49146); settings: cited from earlier work
[11] = target: Y5 receptor (Homo sapiens) (UniProt Q15761); settings: cited from earlier work
Y4R [12] = target: T5, Y4R; experiment: radioligand competition binding; settings: cited from earlier work
Y4R [13] = target: T5, Y4R; experiment: radioligand competition binding (137 mM Na+); settings: cited from earlier work
[14] = target: T6, Y4R^SwBac displaying BBVs (Homo sapiens, UniProt P50391); experiment: Fluorescence anisotropy Y4R competition binding with 16 (Y4R^SwBac BBVs); settings: DPBS, 16 (0.5 nM) as labeled probe, read-out: pKi FA, 137 mM Na+ (converted)
T6 construct: made in house; host or cells: Sf9 insect cells (budded baculovirus particles; MultiBac, with or without the SweetBac module)
Protocol: Two types of MultiBac baculoviruses were used: one type encodes only for hY4R resulting in BBVs displaying Y4R devoid of a mammalian-like glycosylation (herein termed Y4R^nonglyco) and the second type additionally encodes for enzymes providing a mammalian-like glycosylation in Sf9 cells (herein termed Y4R^SwBac; see also Section Molecular Cloning). The obtained viruses were collected by centrifugation at 1600g for 10 min, and the virus titer was determined with an image-based cell-size estimation assay as described elsewhere.[64] […]
FA measurements were carried out using a Synergy NEO multimode plate reader (BioTek, Winooski, VT) and black, half-area, flat-bottom polystyrene NBS (nonbinding surface) 96-well plates (Corning, Corning, NY, product no. 3993). Polarizing excitation (530 ± 15 nm) and dual emission (590 ± 17.5 nm) filters with a dichroic mirror were used, allowing the simultaneous detection of parallelly and perpendicularly polarized fluorescence emission. […]
FA signals were measured for 1.5 h.
Data processing for FA binding assays was assisted by the software Aparecium 2.0.20 developed in house (http://www.gpcr.ut.ee/software.html). Prior to the calculation of FA using eq 1,[19] the measured parallel [I∥(t)] and perpendicular [I⊥(t)] fluorescence intensities were blank-corrected on the basis of the values obtained from wells containing BBVs but no receptor ligand. […]

hY1R [15] = target: T1, hY1R; settings: cited from earlier work
hY2R [16] = target: T2, hY2R; settings: cited from earlier work
hY5R [17] = target: T3, hY5R; settings: cited from earlier work
hY4R-Nluc(intraECL2) = hY4R-Nluc(intraECL2) (Homo sapiens, UniProt P50391, INS195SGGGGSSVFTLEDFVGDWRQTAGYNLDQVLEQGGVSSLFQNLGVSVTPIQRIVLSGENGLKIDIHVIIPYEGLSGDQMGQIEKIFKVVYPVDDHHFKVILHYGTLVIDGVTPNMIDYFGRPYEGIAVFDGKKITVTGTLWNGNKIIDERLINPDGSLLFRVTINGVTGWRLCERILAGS); experiment: NanoBRET Y4R competition binding with 16
Protocol: One the day prior to the experiment, HEK293T-hY4R-Nluc(intraECL2) cells were detached from the culture flask by trypsinization, centrifuged (500g, 5 min), and resuspended in FBS-free L15-HEPES. The cell density was adjusted to 1.14 × 10^6 cells/mL, and the cells were seeded into white 96-well plates (Brand, Wertheim, Germany) (70 μL, 80,000 cells per well) and incubated overnight in a water-saturated atmosphere (only atmospheric CO2). […] The final BSA concentration in the assay was 1.5% (30 μL of a solution containing 5% BSA added to 70 μL of BSA-free medium, as outlined below).
All BRET measurements were performed at a temperature of 25 °C using a TECAN Infinite Lumi plate reader (Tecan, Crailsheim, Germany) equipped with an injection module. Bioluminescence of the nanoluciferase was detected using a 460/35 nm band-pass (460/35 BP) filter. The emission of the fluorescent ligands was detected through a 610 nm long-pass (610 LP) filter. […]
Total binding data from competition binding experiments were plotted as corrected BRET ratio over log(competitor concentration, M) and analyzed by a four-parameter logistic equation (log(inhibitor) vs response–variable slope, GraphPad Prism 5) to obtain the TOP value (upper curve plateau), which was used for data normalization (100% = TOP value, 0% = average of the corrected BRET ratio obtained from unspecific binding). […]

hY4R [18] = target: T4, hY4R; experiment: Flow cytometric Y4R competition binding with 16 as labeled ligand; parameters: expressed in transfected cells; host or cells: CHO (co-expressing Gqi5 and mitochondrially targeted aequorin); settings: intact CHO-hY4R-Gqi5-mtAEQ cells
Protocol: The latter was used for injection of the samples of saturation and competition binding experiments. At least three individual experiments were performed in duplicate (kinetic experiments) or triplicate (saturation and competition binding). […] Measurements were stopped after counting of 2000–10000 gated events.
2 to 3 days prior to the experiment, cells were seeded in T75 or T175 culture flasks. On the day of the experiment, cells were detached by trypsinization, suspended in culture medium, and centrifuged. […] HCl (nonlabeled ligands, saturation, and kinetic experiments).

hY4R [19] = target: T4, hY4R; parameters: expressed in transfected cells; host or cells: CHO (co-expressing Gqi5 and mitochondrially targeted aequorin); settings: cited from earlier work
Y4R [20] = target: T5, Y4R; settings: cited from earlier work; remark: listed apart in the source
[21] = read-out: pKi ± SEM hY1R (converted)
[22] = read-out: pKi ± SEM hY5R (converted)
[23] = DPBS, 16 (1 nM) as labeled probe, read-out: pKi flow cytometry, 137 mM Na+ (converted)
[24] = buffer I, 16 (0.5 nM) as labeled probe, read-out: pKi flow cytometry, Na+ free (converted)

## CC(C)C[C@H](NC(=O)[C@@H]1CCCNC(N)=NC(=O)NCCCCNC(=O)[C@H](NC(=O)CCCNC(=O)CCC#Cc2ccc3c(c2)C(C)(C)C2=C4C=C5C6=[N+](CCC5OC4CCN23)c2ccc(S(=O)(=O)[O-])cc2C6(C)C)CC(=O)N[C@@H](CCCNC(=N)N)C(=O)N[C@@H](Cc2ccc(O)cc2)C(=O)N1)C(=O)N[C@@H](CCCNC(=N)N)C(=O)N[C@@H](Cc1ccc(O)cc1)C(N)=O (some centres unmarked) [Compound 16]
hY1R [1]; read-out: Ki hY1R (converted)
  Ki: 120 nM
hY1R [1]; [21]
  Ki: 123 nM
hY2R [2]
  Ki: > 1000 nM
hY5R [3]; read-out: Ki hY5R (converted)
  Ki: 480 nM
hY5R [3]; [22]
  Ki: 479 nM
[4]
  chemical stability: excellent stability
hY4R [5]
  Emax: 93 ± 5%
Y4R [6]
  Emax: 72 ± 9%
hY4R [7]
  Emax: 66 ± 2%

## 5-TAMRA-[K18,Nle17,30]hPP (2) (from UniProt P01298)
Y4R [8]
  Kd: 26 nM

## hPP (from UniProt P01298)
[9]
  Ki: 440 nM
[10]
  Ki: > 3000 nM
[11]
  Ki: 17 nM
Y4R [12]
  Ki: 0.1 nM
Y4R [13]
  Ki: 0.079 nM

## CC(C)C[C@H](NC(=O)[C@@H]1CCCNC(N)=NC(=O)NCCCCNC(=O)[C@H](NC(=O)CCCNC(=O)CCCCCN2/C(=C/C=C/C=C/C3=[N+](CCCCS(=O)(=O)[O-])c4ccccc4C3(C)C)C(C)(C)c3cc(S(=O)(=O)O)ccc32)CC(=O)N[C@@H](CCCNC(=N)N)C(=O)N[C@@H](Cc2ccc(O)cc2)C(=O)N1)C(=O)N[C@@H](CCCNC(=N)N)C(=O)N[C@@H](Cc1ccc(O)cc1)C(N)=O [Compound 17]
hY1R [1]; [21]
  Ki: > 1000 nM
hY2R [2]
  Ki: > 1000 nM
hY5R [3]; [22]
  Ki: > 1000 nM
[4]
  chemical stability: excellent stability
hY4R [5]
  Emax: 90 ± 3%
Y4R [6]; read-out: miniGsi recruitment pEC50 ± SEM (converted)
  EC50: 85.1 nM
Y4R [6]
  Emax: 70 ± 9%
hY4R [7]
  Emax: 71 ± 3%

## CC(C)C[C@H](NC(=O)[C@@H]1CCCNC(N)=NC(=O)NCCCCNC(=O)CCC(=O)N[C@@H](CCCNC(=N)N)C(=O)N[C@@H](Cc2c[nH]c3ccccc23)C(=O)N1)C(=O)N[C@@H](CCCNC(=N)N)C(=O)N[C@@H](Cc1ccc(O)cc1)C(N)=O [Compound 5]
[14]
  Ki: 0.55 nM
hY1R [15]
  Ki: > 10000 nM
  pKi hY1R: < 5
hY2R [16]
  Ki: > 10000 nM
  pKi hY2R: < 5
hY5R [17]
  Ki: > 3000 nM
  pKi hY5R: < 5.5
hY4R-Nluc(intraECL2)
  Ki: 1.29 nM
Y4R [6]; read-out: miniGsi recruitment EC50 (converted)
  EC50: 1.8 nM
Y4R [6]
  Emax: 61 ± 2%
hY4R [18]; [23]
  Ki: 0.708 nM
hY4R [18]; [24]
  Ki: 0.324 nM

## CCC(=O)NCCCC(=O)N[C@@H]1CC(=O)N[C@@H](CCCNC(=N)N)C(=O)N[C@@H](Cc2ccc(O)cc2)C(=O)N[C@H](C(=O)N[C@@H](CC(C)C)C(=O)N[C@@H](CCCNC(=N)N)C(=O)N[C@@H](Cc2ccc(O)cc2)C(N)=O)CCCNC(N)=NC(=O)NCCCCNC1=O [Compound 7]
[14]
  Ki: 0.398 nM
hY4R-Nluc(intraECL2)
  Ki: 0.851 nM
hY4R [18]; [23]
  Ki: 1.58 nM
hY4R [18]; [24]
  Ki: 0.245 nM
hY4R [19]
  pKi literature, 137 mM Na+: 9.79 ^e

## Sulfo-Cy5-[K4]hPP (from UniProt P01298)
Y4R [20]
  Kd: 5.6 nM
